From patent US5145854A, “1-formyl-5,8,10-trideazafolates” (priority 1991, dated 1992)
Like-named read-outs stand apart in the source and are kept apart here.

How the values were obtained:
[1] = biological target: T1, hog liver glycinamide ribonucleotide formyltransferase (GARFTase) (Sus scrofa, UniProt A0A8W4FJW8); experiment: Inhibition of hog liver glycinamide ribonucleotide formyltransferase; type: biochemical; settings: for IC50: hog liver enzyme, (R,S) diastereomer mixture where marked, read-out: I50 (μM) GARFTase
T1 construct: hog liver glycinamide ribonucleotide formyltransferase; from tissue; host or cells: hog liver
T1 sequence (A0A8W4FJW8 1-1009): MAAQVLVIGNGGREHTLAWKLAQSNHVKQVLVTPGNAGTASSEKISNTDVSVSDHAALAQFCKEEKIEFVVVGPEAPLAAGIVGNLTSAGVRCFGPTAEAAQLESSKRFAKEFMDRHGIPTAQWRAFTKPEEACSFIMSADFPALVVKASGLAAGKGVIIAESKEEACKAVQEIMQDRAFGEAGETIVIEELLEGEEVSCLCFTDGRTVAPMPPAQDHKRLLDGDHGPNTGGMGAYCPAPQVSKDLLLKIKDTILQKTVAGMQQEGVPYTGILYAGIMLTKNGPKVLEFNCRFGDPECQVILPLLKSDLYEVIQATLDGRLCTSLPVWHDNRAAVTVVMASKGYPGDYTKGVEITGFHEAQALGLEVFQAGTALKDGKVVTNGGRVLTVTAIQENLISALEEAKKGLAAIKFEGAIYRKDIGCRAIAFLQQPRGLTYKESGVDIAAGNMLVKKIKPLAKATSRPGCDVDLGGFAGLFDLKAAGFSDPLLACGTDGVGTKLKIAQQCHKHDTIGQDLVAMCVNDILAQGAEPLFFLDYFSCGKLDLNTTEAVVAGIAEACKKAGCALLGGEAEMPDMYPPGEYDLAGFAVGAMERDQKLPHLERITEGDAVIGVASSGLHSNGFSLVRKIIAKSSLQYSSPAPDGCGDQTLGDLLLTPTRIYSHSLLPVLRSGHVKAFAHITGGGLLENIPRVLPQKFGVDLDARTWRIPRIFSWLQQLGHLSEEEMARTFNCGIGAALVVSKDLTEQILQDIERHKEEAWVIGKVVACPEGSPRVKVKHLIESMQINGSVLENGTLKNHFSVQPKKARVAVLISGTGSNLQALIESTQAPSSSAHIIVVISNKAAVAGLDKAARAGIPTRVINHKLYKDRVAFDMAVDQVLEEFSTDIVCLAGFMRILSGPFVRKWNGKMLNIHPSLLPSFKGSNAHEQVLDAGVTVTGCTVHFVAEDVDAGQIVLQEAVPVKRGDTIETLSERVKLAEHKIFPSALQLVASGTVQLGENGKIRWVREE
Text: The representative compound of the present invention is 10-formyl-5,8,10-trideazatetrahydrofolic acid (FTDF) having the formula 1.

AICARFTase = AICARFTase (Homo sapiens, UniProt P31939); experiment: Inhibition of AICARFTase; type: biochemical
AICARFTase, sequence (P31939 whole entry): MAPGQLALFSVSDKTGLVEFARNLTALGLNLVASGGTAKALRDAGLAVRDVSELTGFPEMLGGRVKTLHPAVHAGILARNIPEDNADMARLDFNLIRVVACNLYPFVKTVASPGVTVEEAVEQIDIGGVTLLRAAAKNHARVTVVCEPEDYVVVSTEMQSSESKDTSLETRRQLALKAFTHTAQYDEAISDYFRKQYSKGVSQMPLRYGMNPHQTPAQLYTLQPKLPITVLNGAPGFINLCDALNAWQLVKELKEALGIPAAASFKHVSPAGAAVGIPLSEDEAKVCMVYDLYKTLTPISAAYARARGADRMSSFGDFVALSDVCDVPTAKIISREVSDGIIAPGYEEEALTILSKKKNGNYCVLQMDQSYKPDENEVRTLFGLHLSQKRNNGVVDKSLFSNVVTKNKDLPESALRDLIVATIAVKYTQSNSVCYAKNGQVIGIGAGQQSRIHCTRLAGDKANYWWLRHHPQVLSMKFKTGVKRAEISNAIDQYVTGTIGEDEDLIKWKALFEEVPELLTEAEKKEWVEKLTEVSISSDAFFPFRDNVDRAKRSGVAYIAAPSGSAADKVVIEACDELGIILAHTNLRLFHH

Row | IC50 [1] | potency against GARFTase relative to DDATHF ([1]; hog liver GARFTase, identical experimental conditions) | IC50 (AICARFTase; read-out: I50 (μM) AICARFTase) | Structure (SMILES) | IC50 (AICARFTase)
1 | 2.5 µM |  |  | Nc1nc(N)c(CCCNc2ccc(C(=O)N[C@@H](CCC(=O)O)C(=O)O)cc2)c(=O)[nH]1 [Compound 5-DACTHF, 5-deazaacyclotetrahydrofolic acid, reference compound] | 
2 |  |  |  | Nc1nc2c(c(=O)[nH]1)CC(CCc1ccc(C(=O)N[C@@H](CCC(=O)O)C(=O)O)cc1)CN2 (some centres unmarked) [DDATHF, 5,10-dideazatetrahydrofolic acid, reference compound] | > 500 µM
3 | 0.15 µM | almost twice as potent | 18 µM | Nc1nc2ccc(CC(C=O)c3ccc(C(=O)N[C@@H](CCC(=O)O)C(=O)O)cc3)cc2c(=O)[nH]1 (some centres unmarked) [FTDF, 10-Formyl-5,8,10-trideazafolic Acid] | 
